Test results as given in patent publication US8222231B2, “Derivatives of partially desulphated glycosaminoglycans endowed with antiangiogenic activity and devoid of anticoagulating effect” (Sigma-Tau Industrie Farmaceutiche Riunite SpA, priority 2000, dated 2012).
One block for each substance: values may come before it.

What was measured:
CAM = conditions: in the presence of corticosteroids; compared with heparin; cited from earlier work
[1] = tested on: chick embryo chorioallantoic membrane; assay: Angiostatic activity on chick embryo chorioallantoic membrane (CAM) model; conditions: in vivo
Procedure: For the study of angiogenesis the model used was the chick embryo chorioallantoic membrane model (Ribatti e al. Int. J. Dev. Biol., 40, 1189 (1996)).
300 embryonated hens' eggs were incubated at 37° C. in constant humidity conditions. On the 3rd day of incubation, after aspirating 2-3 ml of albumen from the acute pole of the egg so as to detach the CAM from the shell, a window was cut with scissors in the shell. The vessels underlying the CAM were thus exposed. The window was closed with a transparent glass panel and the eggs were put back into the incubator. […] The experiments were discontinued on the 12th day of incubation, when an overall assessment of the angiogenic activity of the molecules was carried out, expressed as percentage inhibition in relation to the number of experiments initiated and completed (Table 9). In addition, for compound ST1514, assayed at the concentration of 100 μg/embryo, a macroscopic quantitative evaluation of the angiostatic activity was also carried out according to the technique proposed by Brooks et al. (Science, 264, 569, (1994)), counting the number of vessels surrounding the sponge. […]

[2] = target: T1, FGFR/FGF2/HSPG ternary complex (Homo sapiens, UniProt P09038); assay: Inhibition of FGF2-mediated intercellular adhesion of CHO-K1 and CHO-745flg cells; assay type: cell-based, Chinese hamster
T1 construct: expressed in transfected cells; host or cells: CHO 745/flg (HSPG-deficient CHO mutants transfected with FGFR-1); fixed CHO-K1 monolayer supplies HSPGs; FGF-2 added to the medium
Excerpt: To this end an in-vitro model was designed capable of assessing the interference of the various different heparin derivatives with bFGF binding to its own receptor.
These latter cells were stably transfected with cDNA for green fluorescent protein and for this reason could be observed under the fluorescence microscope with a combination of filters for the detection of green emission. In brief, the technique is based on the possibility that the two types of cells may interact (form stable bonds) only if FGF is added to the two cell types. In fact, in this case, the heparan sulphates of the CHO-745flg cells will bind to FGF, which in turn will bind to the CHO-K1 cells, establishing a bridge. The binding that occurs is detectable as a result of the green fluorescence emitted by the CHO-745flg cells.
CHO-K1 cells were seeded at a density of 90,000 cells/cm2 in 24-well plates. After 24 hours the cells were fixed in 3% glutaraldehyde in PBS for 2 hours at 4° C. and washed with 0.1 M glycine/PBS. […] After 2 hours' incubation at 37° C., the adhering cells were counted under the inverted microscope. The results were expressed as percentage of the number of cells adhering compared to those measured in the absence of the test compounds. […]

[3] = Evaluation of heparin toxicity in Balb/c mice; assay type: in vivo; conditions: 50 mg/kg and 25 mg/kg subcutaneously, q2dx5
Procedure: 20 6-week-old female Balb/c mice weighing 20 g (Harlan), divided into groups by casual randomisation, were treated with heparin sodium, as a reference, and with the compound according to the present invention called STI514. The treatment schedule was of the q2dx5 type, i.e. 5 total administrations at intervals of 2 days, administering 200 μl/mouse of 50 mg/kg/10 ml and 25 mg/kg/10 ml solutions subcutaneously.
Heparin sodium: the solution is prepared by solubilizing 160 mg of powder in 4 ml of PBS 1× pH 7.4 free of Ca^++-and Mg^++-ions; it is subdivided into aliquots of 243 μl and stored at −20° C. At the time of treatment, the solution is diluted in Ca^++-and Mg^++-free PBS (Dulbecco, modified formula) 1×, pH 7.4 so as to have the substance at final concentrations of 50 mg/kg/10 ml and 25 mg/kg/10 ml.
ST1514: the solution is prepared by solubilizing 160 mg of powder in 4 ml of Ca^++-and Mg^++-free PBS 1×, pH 7.4; it is subdivided into aliquots of 243 μl and stored at −20° C. […]
Full blood count: the appliance (Cell Analyzer 580 A, DELCON) is used according to the standard procedure described in the operating manual. […] This solution is used for the WBC reading. Solution B, on the other hand, is used for the RBC and platelet (PLT) readings. Each sample is read in duplicate.
The data obtained will be analyzed using ANOVA.

T1 sequence (P09038 143-288, one chain of several): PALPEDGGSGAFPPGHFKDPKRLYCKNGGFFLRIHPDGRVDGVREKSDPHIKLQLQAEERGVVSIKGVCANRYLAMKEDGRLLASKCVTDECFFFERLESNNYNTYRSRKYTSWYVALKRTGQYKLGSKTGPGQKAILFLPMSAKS

Substance: 2-O-desulfated heparin
- antiangiogenic activity as assessed by means of the CAM test (CAM): partly maintained the antiangiogenic activity of heparin

- Cell-Cell Adh. (ID50, ng/mL), inhibition of FGF2-mediated cell-cell adhesion [2]: 100 ng/mL
Substance: Heparin
- Angiostatic activity on CAM model (stated in words) [1]: no activity

Substance: heparin sodium
- liver characteristics at autopsy [3]: livers with abnormal characteristics
